Results on 6 compounds are retold here after DBAASP.

Some test systems named below: Enterococcus gallinarum; Enterococcus faecalis; Pseudomonas aeruginosa; Raoultella terrigena; Acinetobacter baumannii; Proteus mirabilis 090223; Aeromonas sobria 090223; Candida glabrata 0902; Escherichia coli 1342; Klebsiella pneumoniae; Bacillus anthracis; Staphylococcus aureus; Bacillus cereus; Escherichia coli.
What all share (assay): ≥ marks a high value that may be exact or a test limit, other limits are often not marked, values filed in µg/mL are converted to µM
Experiment [1] concerns Staphylococcus aureus 090223.
Experiment [2] relates to Staphylococcus aureus 1349.
For experiment [3], the system named is Escherichia coli ATCC 25922.
In experiment [4] the test system is Candida albicans ATCC 2002.
Experiment [5] relates to Enterococcus faecium 1299.
In experiment [6] the test system is Staphylococcus aureus ATCC 2592.
Experiment [7] relates to Nocardia asteroides 090312.
In experiment [8] the test system is Stenotrophomonas maltophilia 090223.
For experiment [9], the system named is Trichosporon beigelii KCTC 7251.
In experiment [10] the test system is Salmonella typhimurium KCTC 1926.
Experiment [11] has as its system Pseudomonas aeruginosa KCTC 1637.
For experiment [12], the system named is Serratia marcescens KCTC 1299.
In experiment [13] the test system is Bacillus subtilis KCTC 3068.
Experiment [14] relates to Candida albicans KCTC 7121.
The test system of experiment [15] is Escherichia coli KCTC 1682.
The test system of experiment [16] is Streptococcus pyogenes KCTC 3096.
The subject of experiment [17] is Staphylococcus aureus KCTC 1621.
Experiment [18] deals with Fusarium oxysporum KCTC 6084.
Experiment [19] concerns Aspergillus flavus KCTC 7375.
Experiment [20] has as its system Bacillus subtilis ATCC 9372.
In experiment [21] the test system is Escherichia coli ATCC 8739.
The subject of experiment [22] is Pseudomonas aeruginosa ATCC 9027.
The test system of experiment [23] is Staphylococcus aureus ATCC 6538.
The test system of experiment [24] is Proteus vulgaris NCTC 4635.
Experiment [25] relates to Escherichia coli ATCC 25726.
The test system of experiment [26] is Staphylococcus aureus ATCC 25923.
Experiment [27] concerns Stenotrophomonas maltophilia B32/1.
The subject of experiment [28] is Stenotrophomonas maltophilia B32/4.
For experiment [29], the system named is Acinetobacter baumannii NM8.
In experiment [30] the test system is Acinetobacter baumannii NM124.
Experiment [31] has as its system Staphylococcus aureus 127/08.

The MIC is the lowest concentration found to suppress growth. Lower therefore signals greater potency.

Converted amounts (≈) assume the structure as drawn. Some results are limits rather than exact numbers.

Regarding `CSCC[C@H](NC(=O)[C@H](C)NC(C)=O)C(=O)N[C@H](C(=O)N[C@@H](CO)C(=O)N[C@@H](CO)C(=O)O)C(C)C` [AMVSS], the MIC was 23.1 µM (≈ 12.4 µg/mL) in the experiment on Enterococcus gallinarum; no less than 46.2 µM in the experiment on Enterococcus faecalis; 23.1 µM (≈ 12.4 µg/mL) against Pseudomonas aeruginosa; 23.1 µM (≈ 12.4 µg/mL) against Raoultella terrigena; 23.1 µM (≈ 12.4 µg/mL) with Acinetobacter baumannii.

As for `CC[C@H](C)[C@@H]1NC(=O)[C@H](CCSC)NC(=O)[C@@H](NC(=O)[C@H](CC(C)C)NC(=O)[C@H](CC(C)C)NC(=O)[C@H](CO)NC(=O)[C@@H]2CCCN2C(=O)[C@H](CC(C)C)NC(=O)[C@H](CC(C)C)NC(=O)[C@H](CCCCN)NC(=O)[C@@H](NC(=O)[C@@H](NC(=O)[C@H](C)NC(=O)CNC(=O)[C@H](CC(C)C)NC(=O)[C@H](C)NC(=O)[C@@H](N)Cc2ccccc2)C(C)C)[C@@H](C)O)CSSC[C@@H](C(=O)O)NC(=O)[C@H](CCCCN)NC(=O)[C@H](CCCN=C(N)N)NC(=O)[C@H]([C@@H](C)O)NC1=O` [FALGAVTKLLPSLLCMITRKC], the MIC turned out to be 2.06 µM (≈ 4.7 µg/mL) in experiment [1]; 16.5 µM (≈ 37.5 µg/mL) in [2]; 32.9 µM (≈ 74.9 µg/mL) in experiment [3]; 1.01 µM (≈ 2.3 µg/mL) in experiment [4]; 8.25 µM (≈ 18.8 µg/mL) with Proteus mirabilis 090223; 8.25 µM (≈ 18.8 µg/mL) against Aeromonas sobria 090223. In addition, the minimal inhibitory concentration (MIC) was no less than 32.9 µM with Candida glabrata 0902; 2.06 µM (≈ 4.7 µg/mL) in experiment [5]; 8.25 µM (≈ 18.8 µg/mL) in the experiment on Acinetobacter baumannii; 4.12 µM (≈ 9.39 µg/mL) against Escherichia coli 1342; 8.25 µM (≈ 18.8 µg/mL) in experiment [6]; 8.25 µM (≈ 18.8 µg/mL) in experiment [7]. Moreover, the MIC in the experiment with Klebsiella pneumoniae was 32.9 µM (≈ 74.9 µg/mL); in [8], 4.12 µM (≈ 9.39 µg/mL).

Take `CC[C@H](C)[C@H](NC(=O)[C@@H]1CCCN1C(=O)[C@H](CCCCN)NC(=O)[C@H](Cc1ccccc1)NC(=O)[C@H](CC(C)C)NC(=O)[C@H](Cc1cnc[nH]1)NC(=O)[C@H](CC(C)C)NC(=O)[C@H](C)NC(=O)[C@H](CCCCN)NC(=O)[C@H](CCCCN)NC(=O)[C@@H](N)Cc1ccccc1)C(=O)N[C@@H](CCCCN)C(=O)N[C@@H](CCCCN)C(=O)N[C@@H](Cc1ccccc1)C(=O)N[C@@H](CC(C)C)C(=O)N[C@@H](CCCCN)C(=O)N[C@@H](Cc1c[nH]c2ccccc12)C(=O)N[C@@H](CCCCN)C(N)=O` [FKKALHLFKPIKKFLKWK]: the MIC was 25 µM (≈ 57.5 µg/mL) in [9]; 3.13 µM (≈ 7.2 µg/mL) in experiment [10]; 1.56 µM (≈ 3.59 µg/mL) in [11]; 6.25 µM (≈ 14.4 µg/mL) in [12]; 0.78 µM (≈ 1.79 µg/mL) in experiment [13]; no less than 50 µM in [14]. In addition, the minimal inhibitory concentration (MIC) in [15] was 6.25 µM (≈ 14.4 µg/mL); in [16], 6.25 µM (≈ 14.4 µg/mL); in [17] it was 1.56 µM (≈ 3.59 µg/mL); in [18] it was no less than 50 µM; in experiment [19], no less than 50 µM.

`CC[C@H](C)[C@H](NC(=O)[C@@H](NC(=O)[C@H](CO)NC(=O)[C@H](C)NC(=O)[C@@H](NC(=O)[C@H](CCCCN)NC(=O)[C@H](CCCCN)NC(=O)[C@@H](NC(=O)[C@@H](NC(=O)[C@H](C)NC(=O)[C@H](Cc1ccccc1)NC(=O)[C@H](CC(C)C)NC(=O)CN)C(C)C)[C@@H](C)CC)C(C)C)C(C)C)C(=O)NCC(=O)O` [GLFAVIKKVASVIG]: the minimum inhibitory concentration (MIC) in experiment [20] is 5.71 µM (≈ 8 µg/mL); in experiment [21], no less than 45.7 µM; in [22], 183 µM (≈ 256 µg/mL); in experiment [23] it was 22.8 µM (≈ 32 µg/mL); in experiment [24], no less than 183 µM.

For `CC[C@H](C)[C@@H]1NC(=O)[C@H](CCCCN)NC(=O)[C@@H](NC(=O)[C@H](C)NC(=O)[C@@H](NC(=O)[C@H](CC(C)C)NC(=O)[C@H](CC(=O)O)NC(=O)[C@@H](NC(=O)CNC(=O)[C@H](CC(C)C)NC(=O)[C@H](CCCCN)NC(=O)[C@H](C)NC(=O)[C@H](CC(C)C)NC(=O)[C@H](CC(=O)O)NC(=O)[C@H](CCCCN)NC(=O)CNC(=O)[C@H](CC(C)C)NC(=O)CNC(=O)[C@H](CCCCN)NC(=O)[C@H](CO)NC(=O)[C@H](C)NC(=O)[C@H](Cc2ccccc2)NC(=O)[C@@H](N)CCCCN)C(C)C)C(C)C)CSSC[C@@H](C(=O)O)NC(=O)[C@H](CCC(N)=O)NC(=O)[C@H](CCCCN)NC(=O)[C@H](CO)NC1=O` [KFASKGLGKDLAKLGVDLVACKISKQC], the MIC in [25] was no less than 200 µM; in experiment [26], greater than 200 µM; in [27], no less than 100 µM; in experiment [28] it was no less than 50 µM; in experiment [29], no less than 200 µM; in experiment [30] it was no less than 100 µM. In addition, in [31], the MIC is no less than 200 µM.

As for `CC[C@H](C)[C@H](NC(=O)[C@H](Cc1cnc[nH]1)NC(=O)[C@@H](N)[C@@H](C)O)C(=O)N[C@@H](Cc1cnc[nH]1)C(=O)N[C@@H](CCSC)C(=O)N[C@@H](CC(N)=O)C(=O)N[C@@H](C)C(=O)N[C@@H](CCCN=C(N)N)C(=O)N[C@@H](CC(C)C)C(=O)N[C@@H](CC(C)C)C(=O)N[C@H](C(=O)N[C@@H](CCCN=C(N)N)C(=O)N[C@@H](CO)C(=O)N1CCC[C@H]1C(=O)N[C@@H](Cc1ccccc1)C(=O)N[C@H](C(=O)N[C@@H](CC(=O)O)C(=O)N1CCC[C@H]1C(=O)N[C@@H](CCC(N)=O)C(=O)N[C@@H](CC(C)C)C(=O)O)[C@@H](C)O)[C@@H](C)CC` [THIHMNARLLIRSPFTDPQL], the MIC was no less than 108 µM in the experiment with Bacillus anthracis, greater than 108 µM in the experiment with Staphylococcus aureus, no less than 108 µM against Bacillus cereus and greater than 108 µM with Escherichia coli.
